3 molecules from ChEMBL document CHEMBL4028891, “X-ray Characterization and Structure-Based Optimization of Striatal-Enriched Protein Tyrosine Phosphatase Inhibitors” (J Med Chem, 2017) can be followed below.

Each structure is given as a SMILES string. pKd: −log10 of the molar value.

In general, pKd refers to the negative decadic logarithm of the Kd, by convention in mol/L. Low readings indicate a large Kd, high ones a small Kd.

This experiment addresses T1, Tyrosine-protein phosphatase non-receptor type 5 (Homo sapiens, UniProt P54829).
T1 sequence (P54829 whole entry): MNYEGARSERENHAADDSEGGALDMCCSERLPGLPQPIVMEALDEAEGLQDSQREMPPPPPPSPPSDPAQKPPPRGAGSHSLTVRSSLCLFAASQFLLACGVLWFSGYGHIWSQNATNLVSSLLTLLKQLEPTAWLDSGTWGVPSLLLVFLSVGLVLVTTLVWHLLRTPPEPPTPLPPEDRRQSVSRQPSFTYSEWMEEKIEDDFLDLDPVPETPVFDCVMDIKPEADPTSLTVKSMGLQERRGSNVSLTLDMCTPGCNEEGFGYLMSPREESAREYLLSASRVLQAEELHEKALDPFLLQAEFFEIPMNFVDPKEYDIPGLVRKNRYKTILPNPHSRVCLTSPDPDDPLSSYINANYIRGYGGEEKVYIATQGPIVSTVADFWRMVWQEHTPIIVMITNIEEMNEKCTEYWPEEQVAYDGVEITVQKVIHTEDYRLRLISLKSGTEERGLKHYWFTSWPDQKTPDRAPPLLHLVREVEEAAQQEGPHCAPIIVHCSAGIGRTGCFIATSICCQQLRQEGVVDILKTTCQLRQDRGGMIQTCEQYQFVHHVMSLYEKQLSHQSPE
As to the kind of experiment: Binding affinity to 6His-tagged STEP phosphatase domain (258 to 539 residues) (unknown origin) expressed in Escherichia coli BL21 Gold (DE3) after 90 secs at 30 degC by isothermal titration calorimetry assay. For orientation: In ITC the heat of successive injections is recorded.
Take `O=P(O)(O)C(F)(F)c1cccc(-c2cccc(C3CCCCC3)c2O)c1`: the pKd is 4.15. `O=P(O)(O)[C@H](O)c1ccc(-c2cccc([C@H](O)c3ccc(Cl)c(Cl)c3)c2)cc1` had a pKd of 4.50. With `O=P(O)(O)[C@H](O)c1ccc(-c2cccc([C@@H](O)c3ccc(Cl)c(Cl)c3)c2)cc1` the figure was 4.57.
